Test results as given in patent publication US20130324707A1, “SYNTHETIC AMPHIPHILES FOR MEMBRANE PROTEIN MANIPULATION” (The Board of Trustees of the Leland Stanford Junior …, priority 2009, published 2013).
Marks after values point to notes of the source that are not given here.

What was measured:
[1] = Critical micelle concentration (CMC) by fluorescent dye uptake; type: physicochemical
Text: The Critical Micelle Concentrations (CMCs) of compounds of the invention can be determined by standard techniques known to those of skill in the art. For example, CMCs of the carbohydrate-based amphiphiles described herein can be determined by monitoring uptake of a fluorescent dye (e.g., a dye such as 1,6-diphenylhexatriene) with increasing detergent concentration, monitored by fluorescence spectroscopy.

[2] = test system: human β2 adrenergic receptor-T4-lyosome fusion protein (β2AR-T4L); test: Thermal stabilization (Tm) of β2AR-T4L in amphiphile, normalized peak ratio 341 nm/356 nm; set-up: Tm: unit: °C; details: for Tm: β2AR-T4L
Text: FIG. 3 illustrates the results of comparing MNGs to MPAs at 10×CMC for stabilization efficacy of β2 adrenergic receptor-T4-lyosome fusion protein (β2AR-T4L), according to an embodiment of the invention.
FIG. 4 illustrates the results of comparing MNGs to MPAs at 50×CMC for stabilization efficacy of β2AR-T4L, according to an embodiment of the invention. Similar to FIG. 3, the horizontal dotted line extending from 50% on the y-axis in FIG. 4 indicates the melting temperature (Tm).
The branched amphiphiles of the invention have shown to have several advantageous properties that match or surpass those of many known amphiphiles. The branched nature provide improved stabilization, attributable to the dual saccharide chains, and improved solubilization, attributable to the dual hydrophobic tail groups. FIGS. 3 and 4 show a comparative study showing normalized peak ratios (341 nm/356 nm) for six different amphiphiles (illustrated in Schemes F and G) from 25° C. to 85° C., at 10×CMC and 50×CMC for human β2 adrenergic receptor-T4-lyosome fusion protein (β2AR-T4L).

[3] = 10 × CMC, scan from 25° C. to 85° C.
[4] = concentration not given, matches most favourable (*) Tm minus DDM 63.5

CMC [1] [mM] | CMC (%) [1] [%] | ΔTm ([2]; 10 × CMC, relative to DDM) | Tm [2, 3] | ΔTm ([2]; 50 × CMC, relative to DDM) | Tm ([2]; 50 × CMC) | ΔTm [2, 4] | SMILES
0.1 | 0.0092 | – | – | – | – | – | CCCCCCCOCC(COCCCCCCC)(COC1OC(CO)C(O)C(O)C1O)COC1OC(CO)C(O)C(O)C1O (stereo not drawn) [GNG-7]
0.3 | 0.0319 | – | – | – | – | – | CCCCCCCCC(=O)NCC(CNC(=O)CCCCCCCC)(COC1OC(CO)C(OC2OC(CO)C(O)C(O)C2O)C(O)C1O)COC1OC(CO)C(OC2OC(CO)C(O)C(O)C2O)C(O)C1O (stereo not drawn) [MNG-20]
0.9 | 0.1162 | – | – | – | – | – | O=C(Cc1cc(C(F)(F)F)cc(C(F)(F)F)c1)NCC(CNC(=O)Cc1cc(C(F)(F)F)cc(C(F)(F)F)c1)(COC1OC(CO)C(OC2OC(CO)C(O)C(O)C2O)C(O)C1O)COC1OC(CO)C(OC2OC(CO)C(O)C(O)C2O)C(O)C1O (stereo not drawn) [MNG-23]
0.009 | 0.00096 | +1.1 | 64.6 (n = 3) | +4.1 | 67.1 (n = 3)* | +3.6 | CCCCCCCCCCOCC(COCCCCCCCCCC)(CO[C@H]1OC(CO)[C@H](O[C@@H]2OC(CO)[C@H](O)C(O)[C@H]2O)C(O)[C@H]1O)CO[C@H]1OC(CO)[C@H](O[C@@H]2OC(CO)[C@H](O)C(O)[C@H]2O)C(O)[C@H]1O (stereo partly drawn) [MNG-6]
1.02 | 0.058 | – | – | – | – | – | CCCCCCC(CCCCCC)(COC1OC(CO)C(O)C(O)C1O)COC1OC(CO)C(O)C(O)C1O (stereo not drawn) [GNG-12]
0.0037 | 0.00038 | +0.6 | 64.1 (n = 3) | +4.3 | 67.3 (n = 3)* | +3.8 | CCCCCCCCCCCC(CCCCCCCCCCC)(CO[C@H]1OC(CO)[C@H](O[C@@H]2OC(CO)[C@H](O)C(O)[C@H]2O)C(O)[C@H]1O)CO[C@H]1OC(CO)[C@H](O[C@@H]2OC(CO)[C@H](O)C(O)[C@H]2O)C(O)[C@H]1O (stereo partly drawn) [MNG-4]
0.092 | 0.0095 | – | – | – | – | – | CCCCC(CCCC)OCC(COC(CCCC)CCCC)(COC1OC(CO)C(OC2OC(CO)C(O)C(O)C2O)C(O)C1O)COC1OC(CO)C(OC2OC(CO)C(O)C(O)C2O)C(O)C1O (stereo not drawn) [MNG-33]
0.02 | 0.002 | – | – | – | – | – | CCCCCCCCCCCCC(=O)NCC(CNC(=O)CCCCCCCC)(COC1OC(CO)C(OC2OC(CO)C(O)C(O)C2O)C(O)C1O)COC1OC(CO)C(OC2OC(CO)C(O)C(O)C2O)C(O)C1O (stereo not drawn) [MNG-17]
1.55 | 0.08 | – | – | – | – | – | CCCCCCOCC(COCCCCCC)(COC1OC(CO)C(O)C(O)C1O)COC1OC(CO)C(O)C(O)C1O (stereo not drawn) [GNG-6]
0.053 | 0.0059 | – | – | – | – | – | O=C(CCCCC1CCCCC1)NCC(CNC(=O)CCCCC1CCCCC1)(COC1OC(CO)C(OC2OC(CO)C(O)C(O)C2O)C(O)C1O)COC1OC(CO)C(OC2OC(CO)C(O)C(O)C2O)C(O)C1O (stereo not drawn) [MNG-10]
0.84 | 0.1108 | – | – | – | – | – | O=C(CCc1cc(C(F)(F)F)cc(C(F)(F)F)c1)NCC(CNC(=O)CCc1cc(C(F)(F)F)cc(C(F)(F)F)c1)(COC1OC(CO)C(OC2OC(CO)C(O)C(O)C2O)C(O)C1O)COC1OC(CO)C(OC2OC(CO)C(O)C(O)C2O)C(O)C1O (stereo not drawn) [MNG-24]
0.18 | 0.0194 | – | – | – | – | – | CCCCCCCC(=O)NCC(CNC(=O)CCCCC1CCCCC1)(COC1OC(CO)C(OC2OC(CO)C(O)C(O)C2O)C(O)C1O)COC1OC(CO)C(OC2OC(CO)C(O)C(O)C2O)C(O)C1O (stereo not drawn) [MNG-19]
0.39 | 0.043 | – | – | – | – | – | O=C(CCCC1CCCCC1)NCC(CNC(=O)CCCC1CCCCC1)(COC1OC(CO)C(OC2OC(CO)C(O)C(O)C2O)C(O)C1O)COC1OC(CO)C(OC2OC(CO)C(O)C(O)C2O)C(O)C1O (stereo not drawn) [MNG-9]
0.043 | 0.0047 | – | – | – | – | – | CCCCCCCCCC(=O)NCC(CNC(=O)CCCCCCCCC)(COC1OC(CO)C(OC2OC(CO)C(O)C(O)C2O)C(O)C1O)COC1OC(CO)C(OC2OC(CO)C(O)C(O)C2O)C(O)C1O (stereo not drawn) [MNG-13]
2.1 | 0.13 | – | – | – | – | – | OCC1OC(OCC(COC2OC(CO)C(O)C(O)C2O)(CSC2CCCCC2)CSC2CCCCC2)C(O)C(O)C1O (stereo not drawn) [GNG-1]
– | – | −12.1 | 51.4 (n = 3)* | – | – | −12.1 | CCCCCCCCCCC(=O)NCCOC1OC(CO)C(OC2OC(CO)C(O)C(O)C2O)C(O)C1O (stereo not drawn) [MPA-6]

CMC [1] [mM] | CMC (%) [1] [%] | ΔTm ([2]; 10 × CMC, relative to DDM) | Tm [2, 3] | ΔTm ([2]; 50 × CMC, relative to DDM) | Tm ([2]; 50 × CMC) | ΔTm [2, 4] | SMILES
– | – | −4.7 | 58.8 (n = 3)* | −4.7 | 58.3 (n = 3) | −4.7 | CCCCCCCCCCOCCOC1OC(CO)C(OC2OC(CO)C(O)C(O)C2O)C(O)C1O (stereo not drawn) [MPA-11]
17 | 1.07 | – | – | – | – | – | OCC1OC(OCC(COC2CCCCC2)(COC2CCCCC2)COC2OC(CO)C(O)C(O)C2O)C(O)C(O)C1O (stereo not drawn) [GNG-10]
0.008 | 0.0009 | – | – | – | – | – | CCCCCCCCCCCC(=O)NCC(CNC(=O)CCCCCCCCCCC)(COC1OC(CO)C(OC2OC(CO)C(O)C(O)C2O)C(O)C1O)COC1OC(CO)C(OC2OC(CO)C(O)C(O)C2O)C(O)C1O (stereo not drawn) [MNG-27]
0.12 | 0.0134 | – | – | – | – | – | CC(C)(C)C1CCC(C(=O)NCC(CNC(=O)C2CCC(C(C)(C)C)CC2)(COC2OC(CO)C(OC3OC(CO)C(O)C(O)C3O)C(O)C2O)COC2OC(CO)C(OC3OC(CO)C(O)C(O)C3O)C(O)C2O)CC1 (stereo not drawn) [MNG-26]
13.4 | 0.647 | – | – | – | – | – | CCCCCOCC(COCCCCC)(COC1OC(CO)C(O)C(O)C1O)COC1OC(CO)C(O)C(O)C1O (stereo not drawn) [GNG-14]
0.24 | 0.0268 | – | – | – | – | – | CCCCCCCC(=O)NCC(CNC(=O)C(C1CCCCC1)C1CCCCC1)(COC1OC(CO)C(OC2OC(CO)C(O)C(O)C2O)C(O)C1O)COC1OC(CO)C(OC2OC(CO)C(O)C(O)C2O)C(O)C1O (stereo not drawn) [MNG-21]
0.02 | 0.0022 | – | – | – | – | – | CCCCCCCCCCCCCC(=O)NCC(CNC(=O)CCCCCCC)(COC1OC(CO)C(OC2OC(CO)C(O)C(O)C2O)C(O)C1O)COC1OC(CO)C(OC2OC(CO)C(O)C(O)C2O)C(O)C1O (stereo not drawn) [MNG-15]
0.024 | 0.0027 | – | – | – | – | – | CCCCCCCCCCCCCCC(=O)NCC(CNC(=O)CCCCCC)(COC1OC(CO)C(OC2OC(CO)C(O)C(O)C2O)C(O)C1O)COC1OC(CO)C(OC2OC(CO)C(O)C(O)C2O)C(O)C1O (stereo not drawn) [MNG-18]
0.017 | 0.0018 | – | – | – | – | – | CCCCCCCCCOCC(COCCCCCCCCC)(COC1OC(CO)C(OC2OC(CO)C(O)C(O)C2O)C(O)C1O)COC1OC(CO)C(OC2OC(CO)C(O)C(O)C2O)C(O)C1O (stereo not drawn) [MNG-30]
0.017 | 0.0019 | +1.6 | 65.1 (n = 3)* | +2.1 | 65.1 (n = 3)* | +1.6 | CCCCCCCCCCC(=O)NCC(CNC(=O)CCCCCCCCCC)(CO[C@H]1OC(CO)[C@H](O[C@@H]2OC(CO)[C@H](O)C(O)[C@H]2O)C(O)[C@H]1O)CO[C@H]1OC(CO)[C@H](O[C@@H]2OC(CO)[C@H](O)C(O)[C@H]2O)C(O)[C@H]1O (stereo partly drawn) [MNG-1]
72 | 4.7 | – | – | – | – | – | O=C(NCC(CNC(=O)C1CCCC1)(COC1OC(CO)C(O)C(O)C1O)COC1OC(CO)C(O)C(O)C1O)C1CCCC1 (stereo not drawn) [GNG-4]
0.023 | 0.0026 | – | – | – | – | – | CCCCCCCCCCCCCCCC(=O)NCC(CNC(=O)CCCCC)(COC1OC(CO)C(OC2OC(CO)C(O)C(O)C2O)C(O)C1O)COC1OC(CO)C(OC2OC(CO)C(O)C(O)C2O)C(O)C1O (stereo not drawn) [MNG-16]
0.034 | 0.0034 | – | – | – | – | – | CCCCCCCCOCC(COCCCCCCCC)(COC1OC(CO)C(OC2OC(CO)C(O)C(O)C2O)C(O)C1O)COC1OC(CO)C(OC2OC(CO)C(O)C(O)C2O)C(O)C1O (stereo not drawn) [MNG-31]
9.64 | 0.373 | – | – | – | – | – | CCCCCC(CCCCC)(COC1OC(CO)C(O)C(O)C1O)COC1OC(CO)C(O)C(O)C1O (stereo not drawn) [GNG-13]
0.82 | 0.06 | – | – | – | – | – | OCC1OC(OCC(COC2OC(CO)C(O)C(O)C2O)(CSCCc2ccccc2)CSCCc2ccccc2)C(O)C(O)C1O (stereo not drawn) [GNG-11]
